Activity calls are given as the source filed them. No cut-off for these calls is given here.
Tests used:
[1] = target: T1, Gamma-secretase (Homo sapiens) (UniProt Q96BI3+Q9NZ42+Q8WW43+P49768+Q92542+P49810); assay: Inhibition of gamma-secretase (unknown origin) expressed in N2a NL/N cells coexpressing betaAPPNL and NotchdeltaE assessed as Abeta40 secretion at 100 nM by ELISA; type: cell-based
[2] = target: T1, Gamma-secretase (Homo sapiens); assay: Inhibition of gamma-secretase (unknown origin) expressed in N2a NL/N cells coexpressing betaAPPNL and NotchdeltaE assessed as Abeta42 secretion at 100 nM by ELISA; type: cell-based

CC(=O)N[C@H]1CCC[C@@H]1C(=O)N[C@H]1CCC[C@@H]1C(=O)N[C@H]1CCC[C@@H]1C(=O)N[C@H]1CCC[C@@H]1C(=O)N[C@H]1CCC[C@@H]1C(=O)N[C@H]1CCC[C@@H]1C(=O)N[C@H]1CCC[C@@H]1C(=O)N[C@H]1CCC[C@@H]1C(=O)N[C@@H](CC(=O)N[C@H]1CCC[C@@H]1C(=O)N[C@H]1CCC[C@@H]1C(=O)N[C@H]1CCC[C@@H]1C(N)=O)[C@@H](C)O
inhibition [1]: inactive | inhibition [2]: inactive

CC(=O)N[C@H]1CCC[C@@H]1C(=O)N[C@H]1CCC[C@@H]1C(=O)N[C@H]1CCC[C@@H]1C(=O)N[C@H]1CCC[C@@H]1C(=O)N[C@H]1CCC[C@@H]1C(=O)N[C@@H](CC(=O)N[C@H]1CCC[C@@H]1C(=O)N[C@H]1CCC[C@@H]1C(=O)N[C@H]1CCC[C@@H]1C(=O)N[C@H]1CCC[C@@H]1C(=O)N[C@H]1CCC[C@@H]1C(=O)N[C@H]1CCC[C@@H]1C(N)=O)[C@@H](C)O
inhibition [1]: inactive | inhibition [2]: inactive

CC(=O)N[C@H]1CCC[C@@H]1C(=O)N[C@H]1CCC[C@@H]1C(=O)N[C@H](CC(=O)N[C@H]1CCC[C@@H]1C(=O)N[C@H]1CCC[C@@H]1C(=O)N[C@H]1CCC[C@@H]1C(=O)N[C@H]1CCC[C@@H]1C(=O)N[C@H]1CCC[C@@H]1C(=O)N[C@H]1CCC[C@@H]1C(=O)N[C@H]1CCC[C@@H]1C(=O)N[C@H]1CCC[C@@H]1C(=O)N[C@H]1CCC[C@@H]1C(N)=O)Cc1ccc(O)cc1
inhibition [1]: inactive | inhibition [2]: inactive

CC(=O)N[C@H]1CCC[C@@H]1C(=O)N[C@H]1CCC[C@@H]1C(=O)N[C@H]1CCC[C@@H]1C(=O)N[C@H]1CCC[C@@H]1C(=O)N[C@H]1CCC[C@@H]1C(=O)N[C@@H](CCCCN)CC(=O)N[C@H]1CCC[C@@H]1C(=O)N[C@H]1CCC[C@@H]1C(=O)N[C@H]1CCC[C@@H]1C(=O)N[C@H]1CCC[C@@H]1C(=O)N[C@H]1CCC[C@@H]1C(=O)N[C@H]1CCC[C@@H]1C(N)=O
inhibition [1]: inactive | inhibition [2]: inactive

CC(=O)N[C@H]1CCC[C@@H]1C(=O)N[C@H]1CCC[C@@H]1C(=O)N[C@H]1CCC[C@@H]1C(=O)N[C@H]1CCC[C@@H]1C(=O)N[C@H]1CCC[C@@H]1C(=O)N[C@H]1CCC[C@@H]1C(=O)N[C@H]1CCC[C@@H]1C(=O)N[C@H]1CCC[C@@H]1C(=O)N[C@@H](CCCCN)CC(=O)N[C@H]1CCC[C@@H]1C(=O)N[C@H]1CCC[C@@H]1C(=O)N[C@H]1CCC[C@@H]1C(N)=O
inhibition [1]: inactive | inhibition [2]: inactive

CC(=O)N[C@H]1CCC[C@@H]1C(=O)N[C@H]1CCC[C@@H]1C(=O)N[C@H]1CCC[C@@H]1C(=O)N[C@H]1CCC[C@@H]1C(=O)N[C@H]1CCC[C@@H]1C(=O)N[C@H]1CCC[C@@H]1C(=O)N[C@H]1CCC[C@@H]1C(=O)N[C@H]1CCC[C@@H]1C(=O)N[C@H](CC(=O)N[C@H]1CCC[C@@H]1C(=O)N[C@H]1CCC[C@@H]1C(=O)N[C@H]1CCC[C@@H]1C(N)=O)Cc1ccc(O)cc1
inhibition [1]: inactive | inhibition [2]: inactive

CC(=O)N[C@H]1CCC[C@@H]1C(=O)N[C@H]1CCC[C@@H]1C(=O)N[C@H]1CCC[C@@H]1C(=O)N[C@H]1CCC[C@@H]1C(=O)N[C@H]1CCC[C@@H]1C(=O)N[C@H]1CCC[C@@H]1C(=O)N[C@H]1CCC[C@@H]1C(=O)N[C@H]1CCC[C@@H]1C(=O)N[C@@H](CCC(=O)O)CC(=O)N[C@H]1CCC[C@@H]1C(=O)N[C@H]1CCC[C@@H]1C(=O)N[C@H]1CCC[C@@H]1C(N)=O
inhibition [1]: inactive | inhibition [2]: inactive

CC(=O)N[C@H]1CCC[C@@H]1C(=O)N[C@H]1CCC[C@@H]1C(=O)N[C@@H](CCC(=O)O)CC(=O)N[C@H]1CCC[C@@H]1C(=O)N[C@H]1CCC[C@@H]1C(=O)N[C@H]1CCC[C@@H]1C(=O)N[C@H]1CCC[C@@H]1C(=O)N[C@H]1CCC[C@@H]1C(=O)N[C@H]1CCC[C@@H]1C(=O)N[C@H]1CCC[C@@H]1C(=O)N[C@H]1CCC[C@@H]1C(=O)N[C@H]1CCC[C@@H]1C(N)=O
inhibition [1]: Active | inhibition [2]: Active

CC(=O)N[C@H]1CCC[C@@H]1C(=O)N[C@H]1CCC[C@@H]1C(=O)N[C@@H](CC(=O)N[C@H]1CCC[C@@H]1C(=O)N[C@H]1CCC[C@@H]1C(=O)N[C@H]1CCC[C@@H]1C(=O)N[C@H]1CCC[C@@H]1C(=O)N[C@H]1CCC[C@@H]1C(=O)N[C@H]1CCC[C@@H]1C(=O)N[C@H]1CCC[C@@H]1C(=O)N[C@H]1CCC[C@@H]1C(=O)N[C@H]1CCC[C@@H]1C(N)=O)[C@@H](C)O
inhibition [1]: inactive | inhibition [2]: inactive

CC(=O)N[C@H]1CCC[C@@H]1C(=O)N[C@H]1CCC[C@@H]1C(=O)N[C@H](CC(=O)N[C@H]1CCC[C@@H]1C(=O)N[C@H]1CCC[C@@H]1C(=O)N[C@H]1CCC[C@@H]1C(=O)N[C@H]1CCC[C@@H]1C(=O)N[C@H]1CCC[C@@H]1C(=O)N[C@H]1CCC[C@@H]1C(=O)N[C@H]1CCC[C@@H]1C(=O)N[C@H]1CCC[C@@H]1C(=O)N[C@H]1CCC[C@@H]1C(N)=O)CC(C)C
inhibition [1]: Active | inhibition [2]: Active

CC(=O)N[C@H]1CCC[C@@H]1C(=O)N[C@H]1CCC[C@@H]1C(=O)N[C@H]1COC[C@@H]1C(=O)N[C@H]1CCC[C@@H]1C(=O)N[C@H]1CCC[C@@H]1C(=O)N[C@H]1CCC[C@@H]1C(=O)N[C@H]1CCC[C@@H]1C(=O)N[C@H]1CCC[C@@H]1C(=O)N[C@H]1CCC[C@@H]1C(=O)N[C@H]1CCC[C@@H]1C(=O)N[C@H]1CCC[C@@H]1C(=O)N[C@H]1CCC[C@@H]1C(N)=O
inhibition [1]: Active | inhibition [2]: Active

CC(=O)N[C@H]1CCC[C@@H]1C(=O)N[C@H]1CCC[C@@H]1C(=O)N[C@@H](CCCCN)CC(=O)N[C@H]1CCC[C@@H]1C(=O)N[C@H]1CCC[C@@H]1C(=O)N[C@H]1CCC[C@@H]1C(=O)N[C@H]1CCC[C@@H]1C(=O)N[C@H]1CCC[C@@H]1C(=O)N[C@H]1CCC[C@@H]1C(=O)N[C@H]1CCC[C@@H]1C(=O)N[C@H]1CCC[C@@H]1C(=O)N[C@H]1CCC[C@@H]1C(N)=O
inhibition [1]: Active | inhibition [2]: Active

CC(=O)N[C@H]1CCC[C@@H]1C(=O)N[C@H]1CCC[C@@H]1C(=O)N[C@H]1CCC[C@@H]1C(=O)N[C@H]1CCC[C@@H]1C(=O)N[C@H]1CCC[C@@H]1C(=O)N[C@@H](CCC(N)=O)CC(=O)N[C@H]1CCC[C@@H]1C(=O)N[C@H]1CCC[C@@H]1C(=O)N[C@H]1CCC[C@@H]1C(=O)N[C@H]1CCC[C@@H]1C(=O)N[C@H]1CCC[C@@H]1C(=O)N[C@H]1CCC[C@@H]1C(N)=O
inhibition [1]: inactive | inhibition [2]: inactive

CC(=O)N[C@H]1CCC[C@@H]1C(=O)N[C@H]1CCC[C@@H]1C(=O)N[C@H]1CCC[C@@H]1C(=O)N[C@H]1CCC[C@@H]1C(=O)N[C@H]1CCC[C@@H]1C(=O)N[C@H](CC(=O)N[C@H]1CCC[C@@H]1C(=O)N[C@H]1CCC[C@@H]1C(=O)N[C@H]1CCC[C@@H]1C(=O)N[C@H]1CCC[C@@H]1C(=O)N[C@H]1CCC[C@@H]1C(=O)N[C@H]1CCC[C@@H]1C(N)=O)Cc1ccc(O)cc1
inhibition [1]: inactive | inhibition [2]: inactive

CC(=O)N[C@H]1CCC[C@@H]1C(=O)N[C@H]1CCC[C@@H]1C(=O)N[C@@H](CCC(N)=O)CC(=O)N[C@H]1CCC[C@@H]1C(=O)N[C@H]1CCC[C@@H]1C(=O)N[C@H]1CCC[C@@H]1C(=O)N[C@H]1CCC[C@@H]1C(=O)N[C@H]1CCC[C@@H]1C(=O)N[C@H]1CCC[C@@H]1C(=O)N[C@H]1CCC[C@@H]1C(=O)N[C@H]1CCC[C@@H]1C(=O)N[C@H]1CCC[C@@H]1C(N)=O
inhibition [1]: Active | inhibition [2]: Active

— ChEMBL document CHEMBL2331477, “Effect of helical conformation and side chain structure on γ-secretase inhibition by β-peptide foldamers: insight into substrate recognition” (J Med Chem, 2013)
